Measurements as given in US20050148534A1, “Small molecule compositions and methods for increasing drug efficiency using compositions thereof” (priority 2003, published 2005).

How the values were obtained:
HT29 = assay: Cytotoxicity assay, HT29 SSA (SSA not explained); type: cell-based; conditions: Homo sapiens, HT-29; read-out: HT29 (EC50 Ave) SSA
[1] = Serum stability in RPMI1640 medium containing 10% fetal bovine serum; type: in vitro ADME
Description: The stability of conjugates was measured in RPMI1640 cell culture medium containing 10% fetal bovine serum. The serum-containing medium was pre-warmed at 37° C. for 3 min prior to addition of test articles. Test articles, prepared in DMSO as 5 mM stocks, were added to the cell culture media to a final concentration of […]. Aliquots ([…]) were withdrawn in triplicate at 0, 4, 8, 24 and 72 hours and combined with the same volume of ice-cold acetonitrile to terminate the reaction. The mixture was centrifuged at 2,000×g for 10 minutes. One part of the supernatant was mixed with four parts of deionized water to bring down the percentage of organic solvent. The diluted samples were then assayed by LC/MS for the test article. The natural log of the percent remaining was plotted versus time. A linear fit was used to determine the rate constant. The fit was truncated after the percent of remaining test article was less than 10%. The elimination half-lives associated with the disappearance of test articles were determined to compare their relative stability. The assays were carried out by Absorption Systems (Exton, Pa.).

Relative Percent Remaining at 0 hr ([1]; 37° C., medium with 10% fetal bovine serum, 0 hr): 100% | Relative Percent Remaining at 4 hr ([1]; 37° C., medium with 10% fetal bovine serum, 4 hr): 73% | Relative Percent Remaining at 8 hr ([1]; 37° C., medium with 10% fetal bovine serum, 8 hr): 59% | Relative Percent Remaining at 24 hr ([1]; 37° C., medium with 10% fetal bovine serum, 24 hr): 28% | Relative Percent Remaining at 72 hr ([1]; 37° C., medium with 10% fetal bovine serum, 72 hr): <3.0% | half-life ([1]; bovine): 11 h
Structure (SMILES): CC(=O)O[C@H]1C(=O)[C@@]2(C)[C@H]([C@H](OC(=O)c3ccccc3)[C@]3(O)C[C@H](OC(=O)[C@H](O)[C@@H](NC(=O)c4ccccc4)c4ccccc4)C(C)=C1C3(C)C)[C@]1(OC(C)=O)CO[C@@H]1C[C@@H]2O [Paclitaxel]
EC50 (HT29): < 100 nM
